For one data set, the target named is T1, NOD2 (Homo sapiens, UniProt Q9HC29).
T1 construct: host or cells: HEK-Blue NOD2 cells (HEK293-derived)
In words: HEK-Blue NOD2 cell line reporter assay (NF-κB-inducible SEAP). Conditions: HEK-Blue NOD2 cells, 18 h, mean ± SEM; for NOD2 activity at 2 μM (fold increase): NF-κB transcriptional (SEAP) activity relative to 0.1% DMSO; for EC50: 7 or 8 concentrations 1 nM to 20 μM. It counts as cell-based. On the procedure: To determine the NOD2 agonistic potential of the synthesized desmuramylpeptides at the cellular level, we used the validated and commercially available HEK-Blue NOD2 cell line reporter assay. HEK-Blue NOD2 cells were first treated for 18 h with MDP, 1, or the novel desmuramylpeptides at 2 μM. The NF-κB transcriptional activity measured was normalized to that of the vehicle treated (0.1% DMSO) control HEK-Blue NOD2 cells.
HEK-Blue NOD2 and NOD1 cell line reporter assays are derived from HEK293 cells by cotransfection of the hNOD2 or hNOD1 genes, respectively, and an NF-κB-inducible secreted embryonic alkaline phosphatase (SEAP) reporter gene. Following activation of NOD2 or NOD1, the resulting NF-κB induces production of SEAP, the levels of which can be quantified colorimetrically. […] After 18 h of incubation (37 °C, 5% CO2), secreted embryonic alkaline phosphatase (SEAP) activity was determined spectrophotometrically as absorbance at 630 nm (BioTek Synergy microplate reader; Winooski, VT, U.S.A.). EC50 values were calculated using Prism software (version 9; GraphPad Software, CA, U.S.A.). For determination of specificity, HEK-Blue NOD2 cells (2.5 × 10^5 cells/mL) were first pretreated for 1 h with a 10 μM NOD2 antagonist, before the addition of the compounds (2 μM), with incubation for 18 h. SEAP activity in the supernatants was determined as above. The experiments were run in duplicate and repeated as at least two independent biological replicates.

A further data set has as its system human PBMCs. In words: Cytokine release from peripheral blood mononuclear cells (cytometric bead array). It counts as cell-based. As to conditions: 2 μM, 18 h, without LPS. On the procedure: The immunostimulatory effects of the selected desmuramylpeptides were evaluated using human primary peripheral blood mononuclear cells (PBMCs). This heterogeneous mixture of immune cells allowed the study of the effects of these NOD2 agonists in a physiologically relevant system, where other NOD2-interacting and downstream signaling proteins were present. The effects of desmuramylpeptides were first determined for the secreted cytokine profile using a cytometric bead array cytokine kit. Moreover, considering that activation of NOD2 is also an important amplification signal for Toll-like receptor (TLR)-induced inflammatory responses,[79]−[81] we also examined the effects on cytokine secretion of the combination of desmuramylpeptides with LPS, a well-known TLR4 agonist.
In line with previous studies, the effects of MDP and the desmuramylpeptides were most pronounced for the induction of the chemokine IL-8.[82]
Peripheral blood mononuclear cells were seeded (1 × 10^6 cells/mL) in 48-well plates in 500 μL of growth medium and treated with the compounds (2 μM) or with the corresponding vehicle (0.1% DMSO) in the absence and presence of LPS (10 ng/mL). Cell-free supernatants were collected after 18 h of incubation (37 °C, 5% CO2) and stored at −80 °C until tested. Cytokine production was determined with the BD Cytometric Bead Array Human Inflammatory Cytokines Kit (contents: IL-8, IL-1β, IL-6, IL-10, TNF, IL-12p70; BD Bioscience) on an Attune NxT flow cytometer (Thermo Fisher Scientific, Waltham, MA, U.S.A.). Standard curves were generated using recombinant cytokines contained in the kit. The data were analyzed using the FlowJo (Tree Star, Inc., Ashland, OR, U.S.A.) and Prism (GraphPad, San Diego, CA, U.S.A.) software. The experiments were repeated as four independent biological replicates. Statistical significance was determined by repeated measures one-way ANOVA followed with Dunnett’s multiple comparisons test.

Data set [1] relates to NIH/OlaHsd mice. Description: In vivo ovalbumin-specific antibody response, first experiment (neutral liposomes). Set-up: species or system mouse. Conditions: for Log10 (anti-OVA IgG1/anti-OVA IgG2a): first in vivo experiment, one week after the booster dose, mean ± SEM of 5 mice; for Ovalbumin-specific IgG2a response (in words) / Ovalbumin-specific IgG1 response (in words) / Adjuvant activity: ovalbumin-specific IgG (in words): neutral liposomes, 0.30 μmol adjuvant per dose, 1 week after booster; for Adjuvant activity: ovalbumin-specific IgG (in words): s.c. On the procedure:
To determine whether enhanced antigen presentation in vitro is correlated to in vivo adjuvant activities, an immunization study was performed in a murine model of adjuvanticity. Specifically, the selected desmuramylpeptides were investigated for induction of systemic immune responses against the model antigen ovalbumin. Seven groups of NIH/OlaHsd mice were immunized with ovalbumin-containing neutral liposomes, either alone or with additional adjuvants of MDP or the desmuramylpeptides 1, 68, 74, 75, or 81. After immunization and one booster dose, the mice sera were collected and assayed for ovalbumin-specific IgG antibodies (Figure 10).
(§1) Multilamellar liposomes were prepared by the modified thin lipid film method as described previously.[130],[131] For the preparation of neutral liposomes, a 7:5 molar ratio of egg-phosphatidylcholine and cholesterol was used. For the preparation of negatively charged liposomes, a 7:5:1 molar ratio of egg-phosphatidylcholine, cholesterol, and dicetylphosphate was used, while a 7:5:0.5 molar ratio of egg-phosphatidylcholine, cholesterol, and Man-PEG-Pam was used in the preparation of mannosylated liposomes. Lipids (total lipid concentration, 4 mg/mL) were dissolved in chloroform/methanol (2:1). A methanol or chloroform/methanol solution of MDP or the desmuramylpeptides was added to the lipid solution for a final concentration of 2 mM and 1.5 mM for the first (Figure 10) and second (Figure 11) experiments, respectively. After rotary evaporation of the solvent, the remaining lipid film was dried in vacuum for 1 h and then dispersed by gentle handshaking in an ovalbumin solution in saline (0.0667 and 0.1 mg/mL for the first and second experiments, respectively). This was then left overnight at 4 °C to swell and stabilize. Liposome size was reduced by sonification. Nonentrapped material was not separated from liposomes, and the complete liposome suspension was used for immunizations.
(§2) For the first experiment (Figure 10), sex-matched NIH/OlaHsd mice (five per group) were immunized subcutaneously in the tail base and boosted one time after 21 days. The injection volume in all experimental groups was 0.15 mL per mouse, which corresponds to 10 μg of OVA, […], and 0.30 μmol of MDP and desmuramylpeptides. For the second experiment (Figure 11), sex-matched NIH/OlaHsd mice (five per group) were immunized and boosted two times subcutaneously into the tail base at 21-day intervals. The injection volume in all experimental groups was 0.1 mL per mouse, which corresponds to 10 μg of OVA, 400 μg of lipids, and 0.15 μmol of MDP and 75. The mice were anesthetized with ip application of ketamine/xylazine (25 mg/kg each) prior to blood collection from the axillary plexus on the seventh day after the last booster dose. Individual serum from each animal was decomplemented at 56 °C for 30 min and then stored at −20 °C until tested.
(§3) ELISA assays were performed as detailed previously.[46] Briefly, high-binding ELISA plates (Costar, U.S.A.) were coated with a 15 μg/mL solution of ovalbumin in carbonate buffer, pH 9.6, and incubated overnight at room temperature. Nonspecific antibody binding was blocked with 0.5% w/v bovine serum albumin in PBS-T (0.05% (v/v) Tween 20 in phosphate-buffered saline) for 2 h at 37 °C. After washing, five serial dilutions of mice sera and standard preparations were added in duplicate. Plates were incubated overnight at room temperature, washed, and analyzed for ovalbumin-specific IgG levels by incubation with HRP-conjugated goat anti-mouse IgG (2 h at 37 °C) and then, after washing, with 0.6 mg/mL o-phenylenediaminedihydrochloride solution in citrate-phosphate buffer, pH 5.0, with 0.5 μL of 30% H2O2 per milliliter for 30 min at room temperature in the dark. The enzymatic reaction was stopped with 12.5% H2SO4, and absorbance at 492 nm was measured using a microplate reader (Thermo Fisher Scientific, Waltham, MA, U.S.A.). […]

Details of data set [2]: method as in PMID 29543461. Conditions: earlier work of the group; cited from earlier work.
Data set [3] deals with NIH/OlaHsd mice. Description: In vivo ovalbumin-specific antibody response, second experiment (neutral, anionic, mannosylated liposomes). Details: species or system mouse. As to conditions: for Ovalbumin-specific IgG response (in words): 0.15 μmol adjuvant per dose; for Log10 (anti-OVA IgG1/anti-OVA IgG2a): second in vivo experiment, 0.15 μmol adjuvant, one week after second booster, mean ± SEM of 5 mice. On the procedure:
To determine whether the adjuvanticity of 75 can be modulated through changes to the liposomal formulation, a second in vivo experiment was designed in which the adjuvant activities of three different liposomal compositions were compared. Neutral liposomes were prepared from egg phosphatidylcholine and cholesterol.
as §1, §2
as §3, with “U.S.A.). For the determination of ovalbumin-specific IgG1 and IgG2a, the plates were incubated with biotin-conjugated rat anti-mouse IgG1 or IgG2a (2 h at 37 °C) and subsequently with streptavidin–peroxidase for another 2 h at 37 °C. After washing, the substrate solution was added and incubated for 30 min at room temperature in the dark, as described above.” for “U.S.A.).”

Values joined by “and” are separate entries in the source; they are usually repeats but may differ in a detail not shown here. Equal values may be shown once.

T1 sequence (Q9HC29 whole entry): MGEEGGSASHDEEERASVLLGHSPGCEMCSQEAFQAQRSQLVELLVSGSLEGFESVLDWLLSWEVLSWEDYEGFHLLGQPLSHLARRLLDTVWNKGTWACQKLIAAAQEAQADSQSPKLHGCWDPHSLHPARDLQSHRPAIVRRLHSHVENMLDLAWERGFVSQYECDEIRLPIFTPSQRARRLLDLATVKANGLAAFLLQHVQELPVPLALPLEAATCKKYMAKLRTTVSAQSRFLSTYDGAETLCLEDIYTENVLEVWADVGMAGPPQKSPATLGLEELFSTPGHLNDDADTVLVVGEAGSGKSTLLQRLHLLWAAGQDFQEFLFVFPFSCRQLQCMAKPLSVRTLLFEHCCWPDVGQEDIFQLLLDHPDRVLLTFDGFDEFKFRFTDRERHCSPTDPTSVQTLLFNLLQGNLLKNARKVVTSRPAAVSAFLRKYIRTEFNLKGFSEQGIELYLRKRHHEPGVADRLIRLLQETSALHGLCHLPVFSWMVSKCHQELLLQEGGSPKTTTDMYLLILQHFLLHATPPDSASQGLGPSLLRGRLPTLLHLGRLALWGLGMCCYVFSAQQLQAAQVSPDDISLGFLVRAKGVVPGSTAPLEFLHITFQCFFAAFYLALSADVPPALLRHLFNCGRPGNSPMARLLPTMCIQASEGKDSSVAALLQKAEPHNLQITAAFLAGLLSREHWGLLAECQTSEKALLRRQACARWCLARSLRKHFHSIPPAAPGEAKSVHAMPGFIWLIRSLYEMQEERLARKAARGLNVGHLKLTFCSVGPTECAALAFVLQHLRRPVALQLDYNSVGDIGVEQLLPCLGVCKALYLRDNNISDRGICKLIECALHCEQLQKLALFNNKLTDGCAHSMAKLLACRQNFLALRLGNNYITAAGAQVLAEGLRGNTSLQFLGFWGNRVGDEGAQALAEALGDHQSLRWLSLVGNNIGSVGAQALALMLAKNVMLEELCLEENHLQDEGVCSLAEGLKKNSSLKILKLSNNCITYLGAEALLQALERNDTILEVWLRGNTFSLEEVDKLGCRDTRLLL

A word on the EC50: it is the concentration that produces a half-maximal response. With `CCCCCCCCCCCC(=O)Oc1ccc(/C=C/C(=O)NCC(=O)N[C@H](C(=O)N[C@H](CCC(=O)OCC)C(=O)OCC)C(C)C)cc1OC` [Compound 74, Diethyl ((E)-3-(4-(Dodecanoyloxy)-3-methoxyphenyl)acryloyl)glycyl-L-valyl-D-glutamate], at NOD2, the “NOD2 activity at 2 μM (fold increase)” value was 3.17 ± 0.03 fold increase and the concentration for a half-maximal effect (EC50) was determined as 30 ± 5 nM. Besides, the “Induction of cytokines IL-1β, IL-6, IL-8 and TNF-α, compound alone” value in the data set on human PBMCs is recorded as “induced small increases in the levels of all four of these cytokines”. Moreover, in the data set on NIH/OlaHsd mice [1], the “Log10 (anti-OVA IgG1/anti-OVA IgG2a)” value was 2.90 ± 0.39 and the “Ovalbumin-specific IgG2a response (in words)” value is “slight suppression of the IgG2a response”.

With `CCOC(=O)CC[C@@H](NC(=O)[C@@H](NC(=O)CNC(=O)/C=C/c1ccc(O)c(OC)c1)C(C)C)C(=O)OCC` [Compound 1], in data set [2], the Pyrogenicity entry is on record as “devoid of pyrogenicity”. Besides, in the data set on NIH/OlaHsd mice [1], the “Log10 (anti-OVA IgG1/anti-OVA IgG2a)” value amounted to 1.68 ± 0.06, the “Ovalbumin-specific IgG1 response (in words)” value is on record as “largely IgG1-based response” and the “Adjuvant activity: ovalbumin-specific IgG (in words)” value is given as “only marginal adjuvant activity”.

As to `CCOC(=O)CC[C@@H](NC(=O)[C@@H](NC(=O)CNC(=O)/C=C/c1ccc(OC(C)=O)c(OC)c1)C(C)C)C(=O)OCC` [Compound 73, Diethyl ((E)-3-(4-Acetoxy-3-methoxyphenyl)acryloyl)glycyl-L-valyl-D-glutamate], at NOD2, the “NOD2 activity at 2 μM (fold increase)” value is given as 3.05 ± 0.03 fold increase and the EC50 was determined as 62 ± 27 nM. Also, the “Induction of cytokines IL-1β, IL-6, IL-8 and TNF-α, compound alone” value with human PBMCs is on record as “induced small increases in the levels of all four of these cytokines”.

`CC(=O)N[C@H]1C(O)O[C@H](CO)[C@@H](O)[C@@H]1O[C@H](C)C(=O)N[C@@H](C)C(=O)N[C@H](CCC(=O)O)C(N)=O` (stereo partly shown) [MDP, muramyl dipeptide, reference compound]: in the data set with NIH/OlaHsd mice [3] (all liposomal compositions, compared to liposomes without adjuvant), the “Ovalbumin-specific IgG2a response (in words)” value is reported as “remained unchanged”. Also, in the data set on NIH/OlaHsd mice [3] (mannosylated liposomes), the “Ovalbumin-specific IgG response (in words)” value was “strongest immunogenicity” and the “Log10 (anti-OVA IgG1/anti-OVA IgG2a)” value is 2.48 ± 0.19. The “Ovalbumin-specific IgG response (in words)” value with NIH/OlaHsd mice [3] (negatively charged liposomes) is on record as “stronger IgG response”. In the data set on NIH/OlaHsd mice [3] (neutral liposomes), the “Ovalbumin-specific IgG response (in words)” value was “weakest adjuvant activities” and the “Log10 (anti-OVA IgG1/anti-OVA IgG2a)” value came out at 3.02 ± 0.17. Besides, in the data set on NIH/OlaHsd mice [3] (anionic liposomes), the “Log10 (anti-OVA IgG1/anti-OVA IgG2a)” value is on record as 2.85 ± 0.10. In addition, on NOD2, the “NOD2 activity at 2 μM (fold increase)” value was 2.83 fold increase and 2.83 ± 0.16 fold increase; the EC50 turned out to be 148 ± 26 nM. In addition, in the data set on NIH/OlaHsd mice [1], the “Log10 (anti-OVA IgG1/anti-OVA IgG2a)” value worked out at 2.43 ± 0.25, the “Ovalbumin-specific IgG1 response (in words)” value is listed as “significant increases in IgG1 generation”, the “Ovalbumin-specific IgG2a response (in words)” value is “only marginal increases in IgG2a” and the “Adjuvant activity: ovalbumin-specific IgG (in words)” value is recorded as “moderately enhanced”.

Source of the values: publication PMC8279416, “Structural Fine-Tuning of Desmuramylpeptide NOD2 Agonists Defines Their In Vivo Adjuvant Activity” (Journal of Medicinal Chemistry, 2021).
